These results are taken from patent US8383646B2, “Therapeutic ((bicylicheteroaryl)imidazolyl) methylheteroaryl compounds” (Allergan, Inc., priority 2007, dated 2013).

Holding throughout (format): cell-based
One experiment has as its target T1, alpha2A receptor (Homo sapiens, UniProt P08913).
T1 construct: expressed in transfected cells; host or cells: NIH-3T3 cells
T1 sequence (P08913 1-465): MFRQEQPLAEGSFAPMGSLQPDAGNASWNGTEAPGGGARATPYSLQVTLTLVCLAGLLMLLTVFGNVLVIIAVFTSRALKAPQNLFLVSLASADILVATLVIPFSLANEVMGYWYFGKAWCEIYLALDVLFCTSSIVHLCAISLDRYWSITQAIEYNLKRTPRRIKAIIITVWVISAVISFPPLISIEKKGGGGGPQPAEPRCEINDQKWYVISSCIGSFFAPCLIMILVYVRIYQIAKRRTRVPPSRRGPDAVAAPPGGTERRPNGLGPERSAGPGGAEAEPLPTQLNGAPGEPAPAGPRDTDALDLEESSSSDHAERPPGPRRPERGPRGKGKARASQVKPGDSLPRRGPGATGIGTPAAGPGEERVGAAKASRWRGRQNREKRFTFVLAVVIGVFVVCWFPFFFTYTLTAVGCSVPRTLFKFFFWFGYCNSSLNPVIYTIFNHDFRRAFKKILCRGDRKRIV
Description: RSAT assay, alpha2A receptor. Conditions: for EC50: transfected NIH-3T3 cells with Gq/i5, ND = not determinable at concentrations less than 10 micromolar, read-out: Alpha 2A potency (EC50); for Alpha 2A intrinsic activity (efficacy): ratio of maximal effect to that of standard full agonist brimonidine (UK14304), value in parentheses. As for the experimental part: (§1) Receptor Selection and Amplification Technology (RSAT) Assay
(§2) The RSAT assay measures a receptor-mediated loss of contact inhibition that results in selective proliferation of receptor-containing cells in a mixed population of confluent cells. The increase in cell number is assessed with an appropriate transfected marker gene such as β-galactosidase, the activity of which can be easily measured in a 96-well format. Receptors that activate the G protein, Gq, elicit this response. Alpha2 receptors, which normally couple to Gi, activate the RSAT response when coexpressed with a hybrid Gq protein that has a Gi receptor recognition domain, called Gq/i5.
(§3) NIH-3T3 cells are plated at a density of 2×10^6 cells in 15 cm dishes and maintained in Dulbecco's modified Eagle's medium supplemented with 10% calf serum. One day later, cells are cotransfected by calcium phosphate precipitation with mammalian expression plasmids encoding p-SV-β-galactosidase (5-10 μg), receptor (1-2 μg) and G protein (1-2 μg). 40 μg salmon sperm DNA may also be included in the transfection mixture. Fresh media is added on the following day and 1-2 days later, cells are harvested and frozen in 50 assay aliquots. Cells are thawed and 100 μl added to 100 μl aliquots of various concentrations of drugs in triplicate in 96-well dishes. Incubations continue 72-96 hr at 37° C. After washing with phosphate-buffered saline, β-galactosidase enzyme activity is determined by adding 200 μl of the chromogenic substrate (consisting of 3.5 mM o-nitrophenyl-β-D-galactopyranoside and 0.5% nonidet P-40 in phosphate buffered saline), incubating overnight at 30° C. and measuring optical density at 420 nm. The absorbance is a measure of enzyme activity, which depends on cell number and reflects a receptor-mediated cell proliferation. The efficacy or intrinsic activity is calculated as a ratio of the maximal effect of the drug to the maximal effect of a standard full agonist for each receptor subtype. Brimonidine, also called UK14304, the chemical structure of which is shown below, is used as the standard agonist for the alpha2A, alpha2B and alpha2C receptors. The EC50 is the concentration at which the drug effect is half of its maximal effect.
(§4) The results of the RSAT assay with several exemplary compounds of the invention are disclosed in Table 1 above together with the chemical formulas of these exemplary compounds. EC50 values are nanomolar. ND stands for “not determinable” at concentrations less than 10 micromolar. IA stands for “intrinsic activity.”

For the next experiment, the target named is T2, alpha2B receptor (Homo sapiens, UniProt P18089).
T2 construct: expressed in transfected cells; host or cells: NIH-3T3 cells
T2 sequence (P18089 1-450): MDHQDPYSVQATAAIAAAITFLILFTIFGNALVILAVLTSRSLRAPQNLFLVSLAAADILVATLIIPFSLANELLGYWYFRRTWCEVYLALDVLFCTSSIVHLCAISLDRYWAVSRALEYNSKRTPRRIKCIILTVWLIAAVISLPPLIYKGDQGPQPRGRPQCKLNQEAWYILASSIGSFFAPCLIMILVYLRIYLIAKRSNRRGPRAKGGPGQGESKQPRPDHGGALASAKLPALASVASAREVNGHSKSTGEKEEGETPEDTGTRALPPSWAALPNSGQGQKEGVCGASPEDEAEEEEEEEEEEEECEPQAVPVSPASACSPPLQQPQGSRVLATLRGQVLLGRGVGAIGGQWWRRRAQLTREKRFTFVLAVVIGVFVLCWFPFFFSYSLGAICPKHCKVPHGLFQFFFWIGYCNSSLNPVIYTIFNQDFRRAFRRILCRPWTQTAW
Nature of the experiment: RSAT assay, alpha2B receptor. Particulars: for Alpha 2B intrinsic activity (efficacy): ratio of maximal effect to that of standard full agonist brimonidine (UK14304), value in parentheses; for EC50: transfected NIH-3T3 cells with Gq/i5, ND = not determinable at concentrations less than 10 micromolar, read-out: Alpha 2B potency (EC50). On the procedure:
as §1, §2, §3, §4

The target of a further experiment is T3, alpha2C receptor (Homo sapiens, UniProt P18825).
T3 construct: expressed in transfected cells; host or cells: NIH-3T3 cells
T3 sequence (P18825 1-462): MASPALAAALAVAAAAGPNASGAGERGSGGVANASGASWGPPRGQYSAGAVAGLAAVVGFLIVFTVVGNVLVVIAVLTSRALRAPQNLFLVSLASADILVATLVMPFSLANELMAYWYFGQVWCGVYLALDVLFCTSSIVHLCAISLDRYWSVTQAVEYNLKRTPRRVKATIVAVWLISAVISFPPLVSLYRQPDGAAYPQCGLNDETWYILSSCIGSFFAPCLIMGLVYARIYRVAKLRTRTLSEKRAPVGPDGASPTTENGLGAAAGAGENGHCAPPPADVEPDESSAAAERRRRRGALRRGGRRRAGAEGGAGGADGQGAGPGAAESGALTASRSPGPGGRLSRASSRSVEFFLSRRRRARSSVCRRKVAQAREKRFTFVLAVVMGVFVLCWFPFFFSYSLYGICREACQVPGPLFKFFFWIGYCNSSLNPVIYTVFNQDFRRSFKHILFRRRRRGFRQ
Nature of the experiment: RSAT assay, alpha2C receptor. Conditions: for Alpha 2C intrinsic activity (efficacy): ratio of maximal effect to that of standard full agonist brimonidine (UK14304), value in parentheses; for EC50: transfected NIH-3T3 cells with Gq/i5, ND = not determinable at concentrations less than 10 micromolar, read-out: Alpha 2C potency (EC50). On the procedure: as §1, §2, §3, §4

A value given as a limit tells only on which side of the number the result lay.

Broadly, the EC50 is the concentration at which the effect is half-maximal. For the compound `c1cc(C(c2ccncc2)c2cnc[nH]2)c2cccnc2c1` (stereo not shown), the EC50 on alpha2A receptor is over 10000 nM. Further, at alpha2B receptor, the “Alpha 2B intrinsic activity (efficacy)” value is 0.65 and the EC50 came out at 771 nM. Besides, on alpha2C receptor, the “Alpha 2C intrinsic activity (efficacy)” value amounted to 0.18 and the EC50 was over 10000 nM.
Consider `c1cncc(C(c2cnc[nH]2)c2cccc3cccnc23)c1` (stereo not shown), for which, at alpha2A receptor, the “Alpha 2A intrinsic activity (efficacy)” value is given as 0.50 and the EC50 was found to be 576 nM. On alpha2B receptor, the “Alpha 2B intrinsic activity (efficacy)” value is listed as 1.29 and the EC50 is 2.15 nM. On alpha2C receptor, the “Alpha 2C intrinsic activity (efficacy)” value is listed as 1.16 and the EC50 was found to be 123 nM.
Consider `c1cncc(C(c2cnc[nH]2)c2cccc3ncccc23)c1` (stereo not shown), for which, at alpha2A receptor, the “Alpha 2A intrinsic activity (efficacy)” value stood at 0.12 and the EC50 is over 10000 nM. In addition, on alpha2B receptor, the “Alpha 2B intrinsic activity (efficacy)” value is given as 0.90 and the EC50 worked out at 231 nM. At alpha2C receptor, the “Alpha 2C intrinsic activity (efficacy)” value was 0.33 and the EC50 was over 10000 nM.
On to `c1ccc(C(c2cnc[nH]2)c2cccc3cccnc23)nc1` (stereo not shown), for which, on alpha2A receptor, the “Alpha 2A intrinsic activity (efficacy)” value was determined as 0.15 and the EC50 is over 10000 nM. For the same compound, on alpha2B receptor, the “Alpha 2B intrinsic activity (efficacy)” value is on record as 1.00 and the EC50 turned out to be 22 nM. In addition, on alpha2C receptor, the “Alpha 2C intrinsic activity (efficacy)” value is 0.60 and the EC50 is 275 nM.
For `c1ccc(C(c2cnc[nH]2)c2cccc3c2OCC3)nc1` (stereo not shown), the “Alpha 2A intrinsic activity (efficacy)” value at alpha2A receptor is given as 0.23. On alpha2B receptor, the “Alpha 2B intrinsic activity (efficacy)” value was 0.87 and the EC50 was found to be 9.12 nM. On alpha2C receptor, the “Alpha 2C intrinsic activity (efficacy)” value is given as 0.86 and the EC50 is 159 nM.
On to `c1ccc(C(c2cnc[nH]2)c2cccc3ncccc23)nc1` (stereo not shown), for which, on alpha2A receptor, the “Alpha 2A intrinsic activity (efficacy)” value amounted to 0.13 and the EC50 was over 10000 nM. Further, on alpha2B receptor, the “Alpha 2B intrinsic activity (efficacy)” value was determined as 0.45 and the EC50 came out at 348 nM. In addition, on alpha2C receptor, the “Alpha 2C intrinsic activity (efficacy)” value was determined as 0.22 and the EC50 is over 10000 nM.
Turning to `c1cncc(C(c2cnc[nH]2)c2cccc3c2OCC3)c1` (stereo not shown), at alpha2A receptor, the “Alpha 2A intrinsic activity (efficacy)” value is on record as 0.46 and the EC50 was 430 nM. Also, on alpha2B receptor, the “Alpha 2B intrinsic activity (efficacy)” value is given as 1.13 and the EC50 is 10 nM. Moreover, on alpha2C receptor, the “Alpha 2C intrinsic activity (efficacy)” value was determined as 1.12 and the EC50 was 157 nM.
